Data set [1] in a line: In vitro stability in simulated gastric fluid. The class given is in vitro ADME. Particulars: simulated gastric fluid (SGF), pH = 1. On the procedure:
The in vitro stability of LaKe was evaluated following incubation in simulated gastric fluid (SGF), simulated intestinal fluid (SIF), fresh and frozen plasma (rats and humans, respectively), and the presence of hepatocytes (rats and humans) and liver microsomes (rats and humans). At the chosen time points, the mixtures were analyzed by LC-MS/MS to quantify the remaining LaKe and all assays included at least one control compound with known pharmacokinetic properties. […]
centrifuged at 4000 rpm, 4℃ for 20 min. 60 μL of supernatant was mixed with 180 μL of purified water for subsequent LC/MS/MS analysis.
LC-MS/MS Condition: ACQUITY UPLC BEH C18 1.7um 2.1 * 50mm Column (Part No.186002350). Mobile phase: A: 0.1% Formic Acid in Water; B: 0.1% Formic Acid in ACN. […]
Samples were incubated at 37 ℃, 600 rpm for the appointed time. At the chosen time points (60, 120, 360, 1440 minutes) samples were immediately mixed with 400 μL of cold acetonitrile containing 200 ng/mL tolbutamide and labetalol (internal standards). 200 μL of suspension was removed and mixed completely with 400 μL of cold acetonitrile containing 200 ng/mL tolbutamide and labetalol again. The T0 samples were prepared by transferring 198 μL of SIF solution to corresponding well after adding 400 μL of cold acetonitrile containing 200 ng/mL tolbutamide and then mixing completely. The samples were […]
Stability of LaKe in plasma […]

Data set [2] is described as follows: Stability of LaKe upon storage (neat, GC-FID). The class given is physicochemical. The conditions noted are these: ambient temperature. On the procedure: Following preparation, LaKe was analyzed by GC-FID. Subsequently, LaKe was stored neat at either −15, 0, and 20 °C and the samples were reanalyzed after 24 months. Table S1 (Supporting Information) contains the corresponding stability data and the GC-FID conditions applied.

Where only a bound is given, the exact number is not on record here.

On to `CC(O)CCOC(=O)C(C)O` (centres unmarked) [LaKe, 3-hydroxybutyl 2-hydroxypropanoate], for which, in data set [1], the half-life is above 720 min. Besides, in data set [2], the “stability to storage in the neat state” value is given as “at least 2 years”.

In general, half-life refers to the time in which the quantity being followed falls by half.

Source of the values: PMC11403612, “Preparation and Preclinical Characterization of a Simple Ester for Dual Exogenous Supply of Lactate and Beta-hydroxybutyrate” (Journal of Agricultural and Food Chemistry, 2024).
